Test results published in BindingDB's records for doi:10.1016/0028-3908(94)90059-0 (University of Alberta, 1994).
Values joined by “and” are separate entries in the source; they are usually repeats but may differ in a detail not shown here. Equal values may be shown once.

Assays:
[1] = target: 5-hydroxytryptamine receptor 2B (Rattus norvegicus, UniProt P30994)
[2] = target: 5-hydroxytryptamine receptor 1D (Canis lupus familiaris, UniProt P11614)
[3] = target: T1, 5-hydroxytryptamine receptor 3A (Mus musculus, UniProt P23979)
T1 sequence (P23979 whole entry): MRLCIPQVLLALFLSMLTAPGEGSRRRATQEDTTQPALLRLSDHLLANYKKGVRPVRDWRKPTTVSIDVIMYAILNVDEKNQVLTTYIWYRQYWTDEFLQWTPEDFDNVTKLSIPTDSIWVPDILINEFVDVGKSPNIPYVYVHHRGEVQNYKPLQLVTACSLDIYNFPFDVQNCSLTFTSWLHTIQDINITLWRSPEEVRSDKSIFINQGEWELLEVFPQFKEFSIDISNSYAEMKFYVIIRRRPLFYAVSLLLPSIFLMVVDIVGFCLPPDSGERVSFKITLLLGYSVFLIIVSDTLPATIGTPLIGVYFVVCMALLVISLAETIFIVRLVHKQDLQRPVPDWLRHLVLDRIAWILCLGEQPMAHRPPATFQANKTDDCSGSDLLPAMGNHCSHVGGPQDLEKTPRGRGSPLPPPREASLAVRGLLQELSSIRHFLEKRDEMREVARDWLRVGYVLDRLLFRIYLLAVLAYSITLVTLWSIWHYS

[4] = target: 5-hydroxytryptamine receptor 7 (Mus musculus, UniProt P32304)
Sequence of 5-hydroxytryptamine receptor 7 (P32304 whole entry): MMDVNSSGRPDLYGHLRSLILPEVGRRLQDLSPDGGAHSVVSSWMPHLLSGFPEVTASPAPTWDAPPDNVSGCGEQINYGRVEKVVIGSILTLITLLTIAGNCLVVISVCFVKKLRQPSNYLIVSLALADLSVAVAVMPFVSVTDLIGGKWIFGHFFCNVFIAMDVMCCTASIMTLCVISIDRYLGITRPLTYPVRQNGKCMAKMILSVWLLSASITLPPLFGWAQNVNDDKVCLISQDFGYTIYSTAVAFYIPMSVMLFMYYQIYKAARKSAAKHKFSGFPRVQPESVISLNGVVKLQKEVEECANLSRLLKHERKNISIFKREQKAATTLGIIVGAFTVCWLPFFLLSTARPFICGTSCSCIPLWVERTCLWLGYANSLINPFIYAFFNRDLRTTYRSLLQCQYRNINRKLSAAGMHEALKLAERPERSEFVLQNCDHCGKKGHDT

[5] = target: 5-hydroxytryptamine receptor 1B (Mus musculus, UniProt P28334)
Sequence of 5-hydroxytryptamine receptor 1B (Mus musculus, UniProt P28334) (P28334 whole entry): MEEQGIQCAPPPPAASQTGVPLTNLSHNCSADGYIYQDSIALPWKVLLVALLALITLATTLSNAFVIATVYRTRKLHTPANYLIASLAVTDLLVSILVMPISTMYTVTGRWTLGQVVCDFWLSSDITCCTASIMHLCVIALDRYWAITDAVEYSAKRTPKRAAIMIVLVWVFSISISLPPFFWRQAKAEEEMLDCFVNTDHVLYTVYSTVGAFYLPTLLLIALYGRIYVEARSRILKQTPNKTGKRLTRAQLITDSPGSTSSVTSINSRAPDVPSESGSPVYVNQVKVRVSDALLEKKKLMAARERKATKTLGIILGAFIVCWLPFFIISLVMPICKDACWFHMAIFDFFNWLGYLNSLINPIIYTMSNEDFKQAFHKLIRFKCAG

[6] = target: 5-hydroxytryptamine receptor 1B (Rattus norvegicus, UniProt P28564)
Sequence of 5-hydroxytryptamine receptor 1B (Rattus norvegicus, UniProt P28564) (P28564 whole entry): as the sequence (P28334 whole entry) above, with A15T, T23A, G33D, E152D, M192V, A270V, D272E, A385T counted along it

[7] = target: 5-hydroxytryptamine receptor 1D (Rattus norvegicus, UniProt P28565)
Sequence of 5-hydroxytryptamine receptor 1D (Rattus norvegicus, UniProt P28565) (P28565 whole entry): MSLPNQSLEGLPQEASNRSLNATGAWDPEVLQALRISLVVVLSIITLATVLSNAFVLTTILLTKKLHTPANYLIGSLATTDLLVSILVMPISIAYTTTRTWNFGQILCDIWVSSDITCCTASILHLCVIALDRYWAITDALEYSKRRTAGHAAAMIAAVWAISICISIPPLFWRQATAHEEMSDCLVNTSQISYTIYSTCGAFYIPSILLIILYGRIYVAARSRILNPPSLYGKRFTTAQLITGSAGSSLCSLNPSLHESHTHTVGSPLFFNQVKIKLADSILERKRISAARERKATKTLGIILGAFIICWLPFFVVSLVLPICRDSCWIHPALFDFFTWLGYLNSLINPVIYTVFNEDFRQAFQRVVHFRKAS

[8] = target: 5-hydroxytryptamine receptor 1B (Homo sapiens, UniProt P28222)
Sequence of 5-hydroxytryptamine receptor 1B (Homo sapiens, UniProt P28222) (P28222 whole entry): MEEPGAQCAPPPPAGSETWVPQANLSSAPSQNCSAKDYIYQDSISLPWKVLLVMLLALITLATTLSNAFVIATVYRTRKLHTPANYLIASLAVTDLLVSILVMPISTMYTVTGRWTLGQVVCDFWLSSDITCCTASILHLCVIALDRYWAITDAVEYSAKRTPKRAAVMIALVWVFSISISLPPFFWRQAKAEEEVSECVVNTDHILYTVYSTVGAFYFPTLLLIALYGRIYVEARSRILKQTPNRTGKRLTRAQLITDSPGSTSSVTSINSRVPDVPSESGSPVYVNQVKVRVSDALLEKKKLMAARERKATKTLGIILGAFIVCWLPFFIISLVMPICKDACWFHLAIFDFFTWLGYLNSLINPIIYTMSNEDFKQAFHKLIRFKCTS

[9] = target: T2, 5-hydroxytryptamine receptor 1F (Homo sapiens, UniProt P30939)
T2 sequence (P30939 whole entry): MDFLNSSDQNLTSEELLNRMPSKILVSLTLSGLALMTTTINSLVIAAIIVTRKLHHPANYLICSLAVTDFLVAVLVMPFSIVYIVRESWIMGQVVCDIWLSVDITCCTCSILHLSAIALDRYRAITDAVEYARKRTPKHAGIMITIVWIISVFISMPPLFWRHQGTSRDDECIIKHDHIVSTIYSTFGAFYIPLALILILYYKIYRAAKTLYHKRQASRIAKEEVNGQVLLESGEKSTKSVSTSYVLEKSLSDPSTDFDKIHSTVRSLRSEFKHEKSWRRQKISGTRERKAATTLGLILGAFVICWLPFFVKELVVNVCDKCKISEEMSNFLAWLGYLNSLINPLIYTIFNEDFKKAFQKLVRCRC

[10] = target: 5-hydroxytryptamine receptor 1D (Homo sapiens, UniProt P28221)
Sequence of 5-hydroxytryptamine receptor 1D (Homo sapiens, UniProt P28221) (P28221 whole entry): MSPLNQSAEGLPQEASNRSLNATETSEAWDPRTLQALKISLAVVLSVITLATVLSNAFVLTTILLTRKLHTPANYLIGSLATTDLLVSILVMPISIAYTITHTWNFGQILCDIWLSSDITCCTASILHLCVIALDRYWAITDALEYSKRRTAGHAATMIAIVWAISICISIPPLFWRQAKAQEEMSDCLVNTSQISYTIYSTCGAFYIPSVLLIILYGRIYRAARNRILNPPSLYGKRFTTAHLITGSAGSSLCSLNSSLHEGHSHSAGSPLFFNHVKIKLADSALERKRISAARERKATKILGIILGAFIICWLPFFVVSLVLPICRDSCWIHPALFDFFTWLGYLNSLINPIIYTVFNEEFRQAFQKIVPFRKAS

[11] = target: 5-hydroxytryptamine receptor 5A (Mus musculus, UniProt P30966)
Sequence of 5-hydroxytryptamine receptor 5A (P30966 whole entry): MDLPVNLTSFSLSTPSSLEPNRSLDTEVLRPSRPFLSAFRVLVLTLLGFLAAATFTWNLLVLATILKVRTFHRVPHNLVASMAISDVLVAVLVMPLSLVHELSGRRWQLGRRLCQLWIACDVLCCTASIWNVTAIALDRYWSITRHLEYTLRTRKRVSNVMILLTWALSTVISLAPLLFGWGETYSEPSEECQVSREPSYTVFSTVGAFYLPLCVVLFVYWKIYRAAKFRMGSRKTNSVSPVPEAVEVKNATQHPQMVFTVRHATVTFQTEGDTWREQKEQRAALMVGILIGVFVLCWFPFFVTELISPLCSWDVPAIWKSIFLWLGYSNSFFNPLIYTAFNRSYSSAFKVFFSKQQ

[12] = target: 5-hydroxytryptamine receptor 1E (Homo sapiens, UniProt P28566)
Sequence of 5-hydroxytryptamine receptor 1E (P28566 whole entry): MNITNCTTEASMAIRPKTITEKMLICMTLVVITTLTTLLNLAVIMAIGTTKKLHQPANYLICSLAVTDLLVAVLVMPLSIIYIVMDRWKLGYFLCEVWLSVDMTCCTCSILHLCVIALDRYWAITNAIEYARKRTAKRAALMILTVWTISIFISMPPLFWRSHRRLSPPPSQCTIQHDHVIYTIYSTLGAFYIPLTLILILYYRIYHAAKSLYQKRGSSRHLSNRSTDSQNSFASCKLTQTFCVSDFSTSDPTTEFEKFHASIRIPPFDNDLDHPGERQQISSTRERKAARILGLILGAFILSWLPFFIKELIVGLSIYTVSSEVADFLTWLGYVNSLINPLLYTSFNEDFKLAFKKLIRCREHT

[13] = target: T3, 5-hydroxytryptamine receptor 1F (Rattus norvegicus, UniProt P30940)
T3 sequence (P30940 whole entry): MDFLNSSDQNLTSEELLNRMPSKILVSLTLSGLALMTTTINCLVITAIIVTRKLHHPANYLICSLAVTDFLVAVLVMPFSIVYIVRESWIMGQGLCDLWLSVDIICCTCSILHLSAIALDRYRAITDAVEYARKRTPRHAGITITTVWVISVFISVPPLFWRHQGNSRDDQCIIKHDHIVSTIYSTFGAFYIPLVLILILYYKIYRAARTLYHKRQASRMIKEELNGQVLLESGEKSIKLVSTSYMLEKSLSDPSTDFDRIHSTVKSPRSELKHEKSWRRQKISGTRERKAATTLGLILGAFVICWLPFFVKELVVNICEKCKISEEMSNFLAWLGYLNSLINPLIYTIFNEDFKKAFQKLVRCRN

[14] = target: 5-hydroxytryptamine receptor 2B (Mus musculus, UniProt Q02152)
Sequence of 5-hydroxytryptamine receptor 2B (Mus musculus, UniProt Q02152) (Q02152 whole entry): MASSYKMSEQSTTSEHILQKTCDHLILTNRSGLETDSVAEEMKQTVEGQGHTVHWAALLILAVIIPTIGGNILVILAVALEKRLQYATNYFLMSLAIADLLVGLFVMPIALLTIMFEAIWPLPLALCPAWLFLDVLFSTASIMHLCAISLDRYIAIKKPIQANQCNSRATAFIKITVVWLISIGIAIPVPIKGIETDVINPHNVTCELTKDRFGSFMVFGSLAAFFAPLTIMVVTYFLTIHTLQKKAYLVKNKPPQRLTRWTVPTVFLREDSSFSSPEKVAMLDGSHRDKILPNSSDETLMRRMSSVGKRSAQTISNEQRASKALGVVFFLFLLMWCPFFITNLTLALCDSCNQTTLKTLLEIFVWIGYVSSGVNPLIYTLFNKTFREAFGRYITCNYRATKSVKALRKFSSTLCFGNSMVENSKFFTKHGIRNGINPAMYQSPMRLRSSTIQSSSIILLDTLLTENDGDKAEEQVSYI

[15] = target: T4, 5-hydroxytryptamine receptor 1F (Mus musculus, UniProt Q02284)
T4 sequence (Q02284 whole entry): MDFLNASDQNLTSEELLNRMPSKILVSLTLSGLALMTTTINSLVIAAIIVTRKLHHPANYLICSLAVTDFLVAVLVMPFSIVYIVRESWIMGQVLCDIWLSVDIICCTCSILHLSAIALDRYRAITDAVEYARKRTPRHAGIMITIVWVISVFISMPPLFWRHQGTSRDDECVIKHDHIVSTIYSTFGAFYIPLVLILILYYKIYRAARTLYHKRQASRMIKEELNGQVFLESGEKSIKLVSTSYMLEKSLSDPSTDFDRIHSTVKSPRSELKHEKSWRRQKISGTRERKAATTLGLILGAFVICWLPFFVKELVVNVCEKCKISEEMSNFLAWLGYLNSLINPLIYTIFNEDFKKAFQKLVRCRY

Sequence of 5-hydroxytryptamine receptor 2B (Rattus norvegicus, UniProt P30994) (P30994 whole entry): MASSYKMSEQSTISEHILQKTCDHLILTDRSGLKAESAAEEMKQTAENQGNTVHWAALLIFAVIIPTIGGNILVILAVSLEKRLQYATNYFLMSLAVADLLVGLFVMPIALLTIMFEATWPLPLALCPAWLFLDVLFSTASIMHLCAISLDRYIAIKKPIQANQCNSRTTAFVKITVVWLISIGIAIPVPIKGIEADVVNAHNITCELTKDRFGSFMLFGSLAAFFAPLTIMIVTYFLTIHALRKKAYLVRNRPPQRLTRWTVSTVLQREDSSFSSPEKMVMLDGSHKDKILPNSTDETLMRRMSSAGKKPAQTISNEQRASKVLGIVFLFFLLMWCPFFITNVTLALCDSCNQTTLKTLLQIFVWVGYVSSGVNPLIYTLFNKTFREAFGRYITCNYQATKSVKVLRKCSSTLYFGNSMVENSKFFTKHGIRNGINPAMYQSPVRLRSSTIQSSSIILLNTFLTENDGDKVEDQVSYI
Sequence of 5-hydroxytryptamine receptor 1D (Canis lupus familiaris, UniProt P11614) (P11614 whole entry): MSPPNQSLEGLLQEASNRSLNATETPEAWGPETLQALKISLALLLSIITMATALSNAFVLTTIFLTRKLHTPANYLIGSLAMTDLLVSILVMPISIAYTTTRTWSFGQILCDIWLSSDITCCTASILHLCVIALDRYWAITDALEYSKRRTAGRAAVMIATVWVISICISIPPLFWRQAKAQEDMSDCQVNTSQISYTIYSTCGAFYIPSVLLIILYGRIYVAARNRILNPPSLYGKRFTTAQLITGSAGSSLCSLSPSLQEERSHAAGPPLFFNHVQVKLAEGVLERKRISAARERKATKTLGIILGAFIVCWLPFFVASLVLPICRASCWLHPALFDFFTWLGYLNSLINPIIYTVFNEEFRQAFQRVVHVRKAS

CN1CCC(=C2c3ccccc3CCc3sccc32)CC1 [NSC_27400]
Ki [1]: 38.9 nM

COc1ccc2[nH]cc(CCN(C)C)c2c1 [3-(2-DIMETHYLAMINOETHYL)-5-METHOXYINDOLE]
Ki [2]: 5.12 nM

CN1C2CCC1CC(OC(=O)c1cc(Cl)cc(Cl)c1)C2 (stereo not given) [MDL 72222]
Ki [3]: 87.1 nM

CN(C)CCCN1c2ccccc2Sc2ccc(Cl)cc21 [[3-(2-Chloro-phenothiazin-10-yl)-propyl]-dimethyl-amine(Chlorpromazine)]
Ki [4]: 5010 nM

CC(C)(C)NCC(O)COc1cccc2[nH]c(C#N)cc12 (stereo not given) [NSC_155346]
Ki [5]: 2.51 nM
Ki [6]: 0.26 nM
Ki [7]: 36.3 nM
Ki [8]: 21.4 nM

CN1C2CCC1CC(OC(=O)c1c[nH]c3ccccc13)C2 (stereo not given)
Ki [3]: 1.99 nM

CC(C)C[C@H]1C(=O)N2CCC[C@H]2[C@]2(O)O[C@](NC(=O)[C@@H]3C=C4c5cccc6[nH]c(Br)c(c56)C[C@H]4N(C)C3)(C(C)C)C(=O)N12 [Bromocriptine+ (GTP+)]
Ki [4]: 126 nM

c1ccc2c(N3CCNCC3)cccc2c1
Ki [6]: 39.8 nM
Ki [9]: 53.7 nM
Ki [8]: 12 nM
Ki [10]: 7.41 nM

CCCN(CCC)C1CCc2cccc(O)c2C1 (stereo not given)
Ki [11]: 1580 nM
Ki [4]: 251 nM

Cn1cc(CCN)c2cc(O)ccc21 [5-HT,omega-N-Me]
Ki [1]: 10.5 nM

CSc1ccc2c(c1)C(N1CCN(C)CC1)Cc1ccccc1S2 (stereo not given) [methanesulfonic acid;1-methyl-4-(3-methylsulfanyl-5,6-dihydrobenzo[b][1]benzothiepin-5-yl)piperazine]
Ki [12]: 209 nM and 120 nM
Ki [11]: 126 nM
Ki [13]: 1000 nM
Ki [6]: 12.9 nM and 10.5 nM
Ki [7]: 0.58 nM

CC(C)(C)[C@]1(O)CCN2C[C@H]3c4ccccc4CCc4cccc(c43)[C@@H]2C1
Ki [9]: 3890 nM
Ki [4]: 31.6 nM

CCC(=O)c1ccc(N)cc1 [CAS_6270]
Ki [2]: 34.7 nM

COc1cc(CC(C)N)c(OC)cc1I (stereo not given) [[125I]2,5-dimethoxy-4-iodoamphetamine]
Ki [9]: 2510 nM
Ki [1]: 27.5 nM

Cc1[nH]c2ccc(O)cc2c1CCN
Ki [14]: 6610 nM
Ki [8]: 851 nM and 513 nM
Ki [1]: 316 nM

CCCN(CCC)CCc1c[nH]c2ccc(C(N)=O)cc12 [NN-DIPROP-5-CT]
Ki [8]: 41.7 nM
Ki [10]: 12.9 nM

NCCc1c[nH]c2ccccc12 [1H-indole-3-ethanamine]
Ki [14]: 200 nM
Ki [1]: 200 nM

CCN(CC)C(=O)[C@@H]1C=C2c3cccc4[nH]cc(c34)C[C@H]2N(C)C1 [(4R,7R)-N,N-diethyl-6-methyl-6,11-diazatetracyclo[7.6.1.0^{2,7}.0^{12,16}]hexadeca-1(16),2,9,12,14-pentaene-4-carboxamide]
Ki [2]: 12.6 nM

CN1C[C@@H](NS(=O)(=O)N(C)C)C[C@@H]2c3cccc4c3c(cn4C)C[C@H]21 [MESULERGINE]
Ki [4]: 25.1 nM
Ki [8]: 1290 nM and 631 nM

CN1CCc2cc(Cl)c(O)cc2[C@@H](c2ccccc2)C1 [SCH 23390,R(+)]
Ki [1]: 83.2 nM

O=C(CCCN1CCC2(CC1)C(=O)NCN2c1ccccc1)c1ccc(F)cc1 [8-[4-(4-fluorophenyl)-4-oxidanylidene-butyl]-1-phenyl-1,3,8-triazaspiro[4.5]decan-4-one]
Ki [9]: 3.98 nM
Ki [4]: 63.1 nM
Ki [7]: 61.6 nM
Ki [14]: 50.1 nM
Ki [2]: 1000 nM

Cc1cc(C(C)(C)C)c(O)c(C)c1CC1=NCCN1 [SMR000059324]
Ki [6]: 2.51 nM and 0.81 nM
Ki [7]: 1.28 nM

COC(=O)[C@@H]1[C@H]2C[C@H]3c4[nH]c5ccccc5c4CCN3C[C@@H]2CC[C@@H]1O [yohimbic acid methyl ester]
Ki [5]: > 10000 nM
Ki [13]: 562 nM
Ki [15]: 63.1 nM
Ki [7]: 30.9 nM
Ki [2]: 5.24 nM
Ki [1]: 58.9 nM and 35.5 nM and 107 nM and 53.7 nM
Ki [10]: 15.8 nM and 47.9 nM

CN1CC(C(=O)N[C@]2(C)O[C@@]3(O)C4CCCN4C(=O)[C@H](Cc4ccccc4)N3C2=O)CC2c3cccc4[nH]cc(c34)CC21 (stereo partly drawn) [7-Methyl-4,6,6a,7,8,9,10,10a-octahydro-indolo[4,3-fg]quinoline-9-carboxylic acid ((2R,5S,10bS)-5-benzyl-10b-hydroxy-2-methyl-3,6-dioxo-octahydro-oxazolo[3,2-a]pyrrolo[2,1-c]pyrazin-2-yl)-amide]
Ki [7]: 0.06 nM
Ki [1]: 145 nM

FC(F)(F)c1cccc(N2CCNCC2)c1 [TFMPP]
Ki [15]: 794 nM
Ki [7]: 58.9 nM
Ki [1]: 85.1 nM

COc1ccc2[nH]cc(C3=CCNCC3)c2c1 [5-Methoxy-3-(1,2,3,6-tetrahydro-pyridin-4-yl)-1H-indole(RU-24969)]
Ki [5]: 10 nM
Ki [6]: 1.58 nM and 2.57 nM and 0.36 nM
Ki [15]: 158 nM
Ki [7]: 46.8 nM
Ki [2]: 63.1 nM

CC(C)n1cc2c3c(cccc31)C1CC(C(=O)NC3CCCCC3)CN(C)C1C2 (stereo not given) [NSC_60740]
Ki [1]: 10.7 nM

CNS(=O)(=O)Cc1ccc2[nH]cc(CCN(C)C)c2c1 [Sumax]
Ki [12]: 2340 nM and 2090 nM
Ki [11]: > 10000 nM
Ki [15]: 79.4 nM

CN1C[C@H](CNC(=O)OCc2ccccc2)C[C@@H]2c3cccc4c3c(cn4C)C[C@H]21 [METERGOLINE]
Ki [12]: 1120 nM and 776 nM
Ki [13]: 513 nM
Ki [4]: 31.6 nM
Ki [7]: 0.77 nM
Ki [8]: 5.24 nM and 36.3 nM
Ki [10]: 0.6 nM

Clc1cccc(N2CCNCC2)c1 [mCPP]
Ki [8]: 363 nM and 501 nM
Ki [1]: 26.9 nM

NCCc1c[nH]c2ccc(Br)cc12
Ki [1]: 38.9 nM

CCN(CC)C(=O)[C@@H]1C=C2c3cccc4[nH]c(Br)c(c34)C[C@H]2N(C)C1 [LSD,2-Bromo]
Ki [4]: 10 nM
Ki [1]: 12.6 nM

CN1CCN2c3ccccc3Cc3ccccc3[C@H]2C1 [MIANSERIN (+)]
Ki [9]: 12.6 nM
Ki [4]: 100 nM
Ki [15]: 100 nM
Ki [7]: 30.2 nM

COc1cc2c3cc1Oc1cc(ccc1O)C[C@@H]1c4c(cc(OC)c(O)c4Oc4ccc(cc4)C[C@@H]3N(C)CC2)CC[N+]1(C)C [Tubocurarine,d]
Ki [3]: 8.7 nM

CC(C)NCC(O)COc1cccc2[nH]ccc12 (stereo not given) [LB-46]
Ki [5]: 63.1 nM

CN1CCN(c2nc3cc(C(F)(F)F)ccc3n3cccc23)CC1 [CAS_109028-10-6]
Ki [7]: 4.89 nM

CN(C)CCc1c[nH]c2ccc(O)cc12 [3-[2-(dimethylamino)ethyl]indol-5-ol]
Ki [15]: 31.6 nM
